Measured values as given in patent US20080051387A1, “TETRAHYDROPYRIDO[3,4-D]PYRIMIDINES AND RELATED ANALOGUES” (priority 2006, published 2008).
pKi: −log10 of the molar value. Where two headings read alike, the source gives them in different places.

Molecular target: T1, chimeric human H3 receptor (Homo sapiens, UniProt Q9Y5N1)
T1 construct: rat Galpha-i2 (Gnai2, rat); made in house; host or cells: Sf9 insect cells (baculovirus); P2 membranes
Experiment: Chimeric human H3 receptor GTP binding assay (agonist-stimulated GTP-gamma35S binding, Example 7)
Format: biochemical
From the text: This Example illustrates a representative assay for evaluating agonist-stimulated GTP-gamma^35S binding (“GTP binding”) activity. […] This agonist-stimulated GTP binding activity can also be used to detect partial agonism mediated by antagonist compounds. A compound analyzed in this assay is referred to herein as a “test compound.”
Four independent baculoviral stocks (one directing the expression of the chimeric human H3 receptor and three directing the expression of each of the three subunits of a heterotrimeric G-protein) are used to infect a culture of Sƒ9 cells as described above. P2 membranes are prepared as described above, and agonist-stimulated GTP binding on the P2 membranes is assessed using histamine (Sigma Chemical Co., St. Louis, Mo.) as agonist in order to ascertain that the receptor/G-protein-alpha-beta-gamma combination(s) yield a functional response as measured by GTP binding. P2 membranes are resuspended by Dounce homogenization (tight pestle) in GTP binding assay buffer (50 mM Tris pH 7.4, 120 mM NaCl, 5 mM MgCl2, 2 mM EGTA, 1 mg/ml BSA, 0.2 mg/ml bacitracin, 0.02 mg/ml aprotinin, 0.01 mg/ml saponin, 10 μM GDP) and added to assay tubes at a concentration of 35 μg protein/reaction tube. After adding increasing doses of histamine at concentrations ranging from 10-12 M to 10^−5 M, reactions are initiated by the addition of 125 pM GTP-gamma^35S (PERKIN ELMER; Boston, Mass.) with a final assay volume of 0.20 ml. In competition experiments, non-radiolabeled test compounds are added to separate reactions at concentrations ranging from 10^−10 M to 10^−6 M along with 1 μM histamine to yield a final volume of 0.20 ml.
Neutral antagonists are antagonists that are substantially free of inherent agonist activity, and include those test compounds that reduce the histamine-stimulated GTP binding activity towards, but not below, baseline levels. In contrast, in the absence of added histamine, inverse agonists reduce the GTP binding activity of the receptor-containing membranes below baseline.
After a 60-min incubation at room temperature, reactions are terminated by vacuum filtration over WHATMAN GF/C filters (pre-soaked in wash buffer, 0.1% BSA) followed by washing with ice-cold wash buffer (50 mM Tris pH 7.4, 120 mM NaCl). The amount of receptor-bound (and thereby membrane-bound) GTP-gamma^35S is determined by measuring the filter-bound radioactivity, preferably by liquid scintillation spectrometry of the washed filters. Non-specific binding is determined in parallel assays including 10 μM unlabeled GTP-gammaS and typically represents less than 5 percent of total binding. Data is expressed as percent above basal (baseline). The results of GTP binding experiments are analyzed using SIGMAPLOT software (SPSS Inc., Chicago, Ill.). IC50 values are calculated by non-linear regression analysis of dose-response curves using Kaleidograph (Synergy Software, Reading, Pa.).
Alternatively the data is analyzed as follows. First, the average bound radioactivity from negative control wells (no agonist) is subtracted from the bound radioactivity detected for each of the other experimental wells. Second, average bound radioactivity is calculated for the positive control wells (agonist wells). Then, percent inhibition for each compound tested is calculated using the equation: [formula]
Calculated IC50 values are converted to Ki values by the Cheng-Prusoff correction (Cheng and Prusoff (1973) Biochem. Pharmacol. 22(23):3099-3108). Accordingly, the following equation: Ki=IC50/(1+[L]/EC50) is used, where [L] is the histamine concentration in the GTP binding assay, and EC50 is the concentration of histamine producing a 50% response, as determined by a dose-response analysis using concentrations of histamine ranging from 10^−10 M to 10^−6 M. […]

T1 sequence (Q9Y5N1 with tags, fused parts or gaps): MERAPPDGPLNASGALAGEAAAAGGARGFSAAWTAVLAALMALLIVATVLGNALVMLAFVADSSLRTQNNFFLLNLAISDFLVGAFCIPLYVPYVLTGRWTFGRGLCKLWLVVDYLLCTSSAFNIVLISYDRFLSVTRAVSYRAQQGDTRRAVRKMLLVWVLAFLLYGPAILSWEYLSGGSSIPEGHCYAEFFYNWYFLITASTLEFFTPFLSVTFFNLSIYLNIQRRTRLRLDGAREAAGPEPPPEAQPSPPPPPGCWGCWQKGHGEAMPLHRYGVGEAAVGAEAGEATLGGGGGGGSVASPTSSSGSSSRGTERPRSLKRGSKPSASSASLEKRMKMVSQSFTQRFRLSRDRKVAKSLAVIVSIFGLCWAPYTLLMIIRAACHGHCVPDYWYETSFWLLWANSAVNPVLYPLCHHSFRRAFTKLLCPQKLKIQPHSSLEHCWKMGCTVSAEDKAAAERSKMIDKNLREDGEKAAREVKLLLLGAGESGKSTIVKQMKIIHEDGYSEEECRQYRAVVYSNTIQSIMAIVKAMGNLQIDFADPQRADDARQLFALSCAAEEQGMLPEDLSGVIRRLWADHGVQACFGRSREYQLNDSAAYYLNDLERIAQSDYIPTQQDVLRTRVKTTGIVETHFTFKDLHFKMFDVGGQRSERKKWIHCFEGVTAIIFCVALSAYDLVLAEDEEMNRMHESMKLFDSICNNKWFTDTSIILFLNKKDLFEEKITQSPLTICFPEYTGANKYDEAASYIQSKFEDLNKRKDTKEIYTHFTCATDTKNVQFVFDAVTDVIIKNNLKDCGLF

SMILES: CC(=O)N1CCc2nc(N3CCN(C4CCC4)CC3)ncc2C1 [Compound 608, 6-acetyl-2-(4-cyclobutylpiperazin-1-yl)-5,6,7,8-tetrahydropyrido[4,3-d]pyrimidine]
- pKi (P2 membranes of Sf9 cells, 1 μM histamine as agonist, Ki from IC50 by Cheng-Prusoff, read-out: Ki): > 6.00

SMILES: FC(F)(F)CCN1CCc2cnc(N3CCN(C4CCC4)CC3)nc2CC1 [Compound 595, 2-(4-cyclobutylpiperazin-1-yl)-7-(3,3,3-trifluoropropyl)-6,7,8,9-tetrahydro-5H-pyrimido[4,5-d]azepine]
- pKi (assay of Example 7, symbol "*" in column headed Ki, read-out: Ki): > 6.00

SMILES: CC(=O)c1ccc(N2CCc3ncnc(N4CCN(C5CCC5)CC4)c3CC2)cc1 [Compound 7, 1-{4-[4-(4-Cyclobutyl-piperazin-1-yl)-5,6,8,9-tetrahydro-pyrimido[4,5-d]azepin-7-yl]-phenyl}-ethanone]
- pKi (P2 membranes of Sf9 cells, 1 μM histamine as agonist, read-out: Ki in the assay of Example 7): > 6.00
